Entries after “also recorded” stand apart in the source; their conditions may differ.
Test system: antibodies in the Q1 and Q3 plasma (patient Q)
Test: ELISA on Q1 and Q3 specific 12-mer peptides reacted with Q1 and Q3 plasma
Assay type: binding, human
Details: for binding of plasma to the peptide versus background binding to a panel of 12 randomly chosen control peptides (Student's Test): Q1/Q3 plasma
Procedure: Polystyrene plates (Nunc immuno plate maxisorb F96) were coated with streptavidin by incubating overnight at 4° C. with 0.1 ml/well of a 5 μg/ml solution of streptavidin (Sigma Cat. No. S4762) in 0.1 M carbonate buffer at pH 9.6. After removal of the streptavidin solution, the wells were washed four times with a 0.1% solution of Tween 20 in PBS. Nonspecific binding was blocked by incubating each well with 0.2 ml of 2% BSA in PBS for 1 h at 20° C. The wells were again washed four times with PBS/Tween 20. Plates were air-dried and stored at 4° C. until required. The streptavidin in each well was coupled to cleaved peptides by incubation with 100 μl of a 1:100 dilution of cleaved peptide solution with 0.1% BSA in PBS containing 0.1% sodium azide for 1 h at 20° C. After incubation, the plate was washed four times with PBS/Tween 20. Each well was incubated with 100 μl of a suitable dilution of serum (diluted with 2% BSA in PBS containing 0.1% sodium azide) for 1 h at 20° C. or overnight at 4° C. followed by four washes with PBS/Tween 20. Bound antibody was detected by reaction for 1 h at 20° C. in 0.1 ml conjugate. This consisted of 0.25 ml/l (a saturating level) of horseradish peroxidase-labeled goat anti-rabbit IgG (H+L) (Kirkegaard and Perry Labs, Gaithersburg, Md.) in CASS (0.1% sheep serum, 0.1% Tween 20, 0.1% sodium caseinate diluted in 0.1M PBS, pH 7.2). The wells were washed 2 times with PBS/Tween 20 followed by two washes with PBS only. The presence of enzyme was detected by reaction for 45 min at 20° C. with 0.1 ml of a freshly-prepared solution containing 50 mg of ammonium 2,2'azino-bis[3-ethylbenzothiazoline-6-sulphonate (ABTS, Boehringer Mannheim Cat. no. 122661) and 0.03 ml of 35% (w/w) hydrogen peroxide solution in 100 ml of 0.1 M phosphate/0.08 M citrate buffer, pH 4.0. Color development was measured in a Titertek Multiscan MC plate reader in the dual wavelength mode at 405 nm against a reference wavelength of 492 nm.
To examine the effect of the amino acid substitutions observed in the Q1 and Q3 E2 HV domains on antibody binding, we synthesized a Q1 and Q3 specific 12-mer peptide from amino acids 396 to 407 (HVE Q1 or Q3 in FIG. 7B) and separately reacted the Q1 and Q3 plasma with each peptide in an ELISA.

Row | Sequence | binding of plasma to the peptide versus background binding to a panel of 12 randomly chosen control peptides (Student's Test) | Elisa Results on 12-mer Peptides, Mean (Q1 plasma) | Elisa Results on 12-mer Peptides, Mean (Q3 plasma) | reaction of antibodies in patient Q plasma with the peptide in ELISA (Q1 and Q3 plasma, peptides amino acids 396-407)
1 | TAGFVRLFETGP [Q3 peptide, Q3 specific 12-mer peptide from amino acids 396 to 407 of the HCV E2/NS1 HV domain] | not statistically significant | 0.691 | 0.693 | 
2 | TARFAGFFQSGA [Q1 peptide, Q1 specific 12-mer peptide from amino acids 396 to 407 of the HCV E2/NS1 HV domain] | significantly above background binding | 1.158 | 1.022 | reacted with the Q1 peptide; also recorded: developed an antibody response to the Q1 peptide

— US6303292A, “Immunoreactive polypeptide compositions” (Chiron Corporation, priority 1998, dated 2001)
